Calcium oscillation score data for 96 sequences are collected here from the OligoGym collection.

Bases are written 5' to 3'; sugars and linkages follow in the same order, as letters with counts (s phosphorothioate, o phosphodiester; PS: all linkages phosphorothioate). The collection does not say whether C is 5-methylated. l = locked nucleic acid (LNA); d = 2'-deoxy (DNA)

In the series the target is Tau. As to the kind of experiment: rat primary cortical neurons, FLIPR, 25 uM ASO.
On to “ACCCATCCCACAAAGAACAG (sugars l3 d14 l3, PS)”, for which the calcium oscillation score is 34.2 % of control.

Regarding TCTTGGCGGAAGACGG (sugars l3 d10 l3, PS), the calcium oscillation score is 100 % of control. The result for ACTGTTACACATTTATC (sugars l4 d9 l4, PS) reads 79.8 % of control; that for GTCGATGCTGCCGGTG (sugars l3 d10 l3, PS), 0 % of control; that for CATGATCTTAGGCT (sugars l3 d8 l3, PS), 25.3 % of control. As for “TGGATGTTGCCTAATGAGCC (sugars l3 d14 l3, PS)”, the figure is 0 % of control; as for “TTTTTACCAATTTGCCT (sugars l2 d11 l4, PS)”, 55.5 % of control.

“AATTTACACCCAAACCTA (sugars l2 d12 l4, PS)”: the calcium oscillation score was 81.9 % of control.

Regarding “CCACCCTAACACAATCA (sugars l2 d12 l3, PS)”, the calcium oscillation score is 94 % of control. On to GCTTCAGTCCTAATC (sugars l3 d9 l3, PS), for which the calcium oscillation score is 11.5 % of control. Regarding CTTATTAATTATCTGC (sugars l4 d8 l4, PS), the calcium oscillation score was 33.9 % of control. The result for “ATCAGTCTTATCTCCCA (sugars l3 d12 l2, PS)” reads 49.2 % of control; that for “GTCCTCACTTTACACATT (sugars l3 d13 l2, PS)”, 41 % of control. As for GTAACCAACTTTCATC (sugars l3 d9 l4, PS), the figure is 74.8 % of control; as for “AAGCCCATTTACAATTC (sugars l4 d10 l3, PS)”, 81.1 % of control; as for AGAAATAAGTGGTAGT (sugars l3 d9 l4, PS), 101 % of control.

As to “ACTTTATTTCCAAATTCACTTTTAC (sugars l1 d19 l5, PS)”, the calcium oscillation score is 86.5 % of control.

As for “AAAAAGTCCATTCCCTC (sugars l3 d10 l4, PS)”, the calcium oscillation score is 64 % of control. “ATTTAGTCACCATCACT (sugars l3 d10 l4, PS)”: the calcium oscillation score was 102 % of control.

On to “ATTTAGTTTTCCCACCCA (sugars l1 d15 l2, PS)”, for which the calcium oscillation score is 48 % of control. As for “CTTAGTCATCTTCCCTC (sugars l2 d13 l2, PS)”, the figure is 92.4 % of control; as for “TCCACAAACCAACTCAAC (sugars l4 d12 l2, PS)”, 95.9 % of control. As for GCATGATTGTGGGCTT (sugars l3 d10 l3, PS), the figure is 47.4 % of control; as for TTCCTGGACCACCTTA (sugars l3 d10 l3, PS), 59.3 % of control. The result for CCTCTAGTTTTACCTA (sugars l2 d11 l3, PS) reads 58.8 % of control. Take TTTAGCAGAGGAACGT (sugars l3 d10 l3, PS): the calcium oscillation score is 15.6 % of control. With GAGGAACGTGTGGATG (sugars l3 d10 l3, PS), the calcium oscillation score is 3.7 % of control. Regarding “CATCCATTTTCTGACTC (sugars l4 d11 l2, PS)”, the calcium oscillation score is 52 % of control.

Take “TTCATCACCAAGTCCCA (sugars l3 d12 l2, PS)”: the calcium oscillation score is 66.8 % of control. As for GTTAACTCATCAACAC (sugars l4 d9 l3, PS), the figure is 59 % of control; as for CACTGTTACACATTTAT (sugars l4 d9 l4, PS), 68 % of control; as for CATGATTGTGGGCTTA (sugars l3 d10 l3, PS), 0 % of control.

Regarding “ATCATAATCCTACCACCA (sugars l3 d13 l2, PS)”, the calcium oscillation score was 87.5 % of control. Turning to “CTTACACACCACACACACT (sugars l1 d16 l2, PS)”, the calcium oscillation score is 100 % of control. As for “ATGAGCACTAACTCTAAGTA (sugars l3 d14 l3, PS)”, the figure is 4.76 % of control. As for “TAATTACATTTTTTCTTTTT (sugars l4 d12 l4, PS)”, the figure is 58.2 % of control; as for “CCCCAGACCATCAATTT (sugars l2 d13 l2, PS)”, 61.7 % of control. As for “TCCACAAACCAACTCAA (sugars l3 d10 l4, PS)”, the figure is 99.5 % of control; as for “TCTAGTTATACAGTTGGCCC (sugars l3 d14 l3, PS)”, 21.4 % of control.

With TTGAAGTCCCGAGCC (sugars l3 d9 l3, PS), the calcium oscillation score was 0 % of control. As to “CAACTCAACATTACCCTTA (sugars l4 d13 l2, PS)”, the calcium oscillation score was 81.1 % of control. In the case of “CCACCTCATTAAGATCA (sugars l3 d12 l2, PS)”, the calcium oscillation score was 56 % of control.

With “CTACAAACCAGTTACCA (sugars l3 d11 l3, PS)”, the calcium oscillation score is 69.9 % of control. With CCATGTCGATGCTGCC (sugars l3 d10 l3, PS), the calcium oscillation score is 55.1 % of control. Regarding “TCACTCATGCCTTAATC (sugars l4 d11 l2, PS)”, the calcium oscillation score is 62 % of control. As for TTCCAGTCCCGTCTTT (sugars l3 d10 l3, PS), the figure is 73.1 % of control; as for CAGGCGCGAGCAGCGG (sugars l3 d10 l3, PS), 49.5 % of control. Regarding ACTTACTGATCATAAT (sugars l4 d8 l4, PS), the calcium oscillation score was 77.2 % of control. As for “ATTTCCAAATTCACTTTTAC (sugars l2 d1 l2 d11 l4, PS)”, the calcium oscillation score was 147 % of control. Consider “CTTTATTTCCAAATTCACTT (sugars l4 d12 l4, PS)”, for which the calcium oscillation score is 0 % of control. As for “CGGAAGGTCAGCTTGTGGGT (sugars l3 d14 l3, PS)”, the figure is 14.5 % of control; as for “TTTTCCCAATTATTAACCC (sugars l3 d14 l2, PS)”, 71.4 % of control; as for “CTTTTTCCATCTTACTAATA (sugars l3 d14 l3, PS)”, 46.5 % of control.

TGCCTAATGAGCCACA (sugars l3 d10 l3, PS): the calcium oscillation score was 44.4 % of control. CTTCTATTACTTGCAAT (sugars l4 d9 l4, PS): the calcium oscillation score is 69 % of control. In the case of AATAAGAAAGGAACGC (sugars l5 d6 l5, PS), the calcium oscillation score was 113 % of control. As for “ACTTTATCCCTCCATGA (sugars l3 d11 l3, PS)”, the figure is 39.6 % of control.

As to CCAATTAACCGAACTG (sugars l3 d10 l3, PS), the calcium oscillation score is 55.2 % of control.

As to AGAAATAAGTGGTAGT (sugars l2 d12 l2, PS), the calcium oscillation score is 86.9 % of control. On to CCTCCACCCTTACACA (sugars l1 d13 l2, PS), for which the calcium oscillation score was 58.9 % of control. The result for TTTGAGTTGAGGGACC (sugars l3 d10 l3, PS) reads 0 % of control; that for “TTTTTCTTGTTCTAACCC (sugars l4 d12 l2, PS)”, 56.1 % of control; that for ATAAATTTGAACCCCT (sugars l3 d9 l4, PS), 49.7 % of control. The result for “CTTTATTTCCAAATTCACTT (sugars l2 d1 l1 d13 l3, PS)” reads 132 % of control; that for “CTCCAATTTTAAACTTAAA (sugars l4 d11 l4, PS)”, 70.2 % of control. The result for CCCTTAATTTCACCC (sugars l3 d9 l3, PS) reads 103 % of control; that for ACTTCTAATTTAGTCAC (sugars l4 d9 l4, PS), 77.2 % of control; that for CTTGGCTTTGGCGTTC (sugars l3 d10 l3, PS), 2.61 % of control. For the sequence GTCTGAGCTACCAGGA (sugars l3 d10 l3, PS), the calcium oscillation score is 11.7 % of control. The result for “CCCCATTTATCCTTCATG (sugars l2 d14 l2, PS)” reads 49.4 % of control; that for “TTCTTCCATCCTAAGTCA (sugars l3 d13 l2, PS)”, 51.7 % of control; that for GGCGCAGGCGCGAGCA (sugars l3 d10 l3, PS), 7.62 % of control. As for TCATAGTCACTCTGGT (sugars l3 d10 l3, PS), the figure is 85.7 % of control; as for “CTTTATTTCCAAATTCACTT (sugars l2 d1 l1 d12 l4, PS)”, 44.7 % of control; as for GCGAGTCTACCATGTC (sugars l3 d10 l3, PS), 76 % of control. Consider “CTTTATTTCCAAATTCACTT (sugars l4 d13 l3, PS)”, for which the calcium oscillation score was 121 % of control.

For the sequence GTCCTAATCCTGTGCT (sugars l3 d10 l3, PS), the calcium oscillation score is 87.8 % of control. As for “ACCCTTGATCATATTTGTGG (sugars l3 d14 l3, PS)”, the figure is 30.9 % of control; as for CCCATTTACAATTCAG (sugars l3 d10 l3, PS), 52.6 % of control; as for “CATTCCCTCCAGAACCATCA (sugars l3 d14 l3, PS)”, 34.2 % of control. With “TTCATCTACTTTTCAGCT (sugars l4 d12 l2, PS)”, the calcium oscillation score is 47.2 % of control.

Consider “TTGGAGTGCTCTTAGCATCA (sugars l3 d14 l3, PS)”, for which the calcium oscillation score is 7.78 % of control. With TTGATACCCTTCCTCA (sugars l3 d10 l3, PS), the calcium oscillation score is 14.3 % of control. Regarding AATTAACCGAACTGCG (sugars l3 d10 l3, PS), the calcium oscillation score is 186 % of control. As for “TATTTCCAAATTCACTTTTA (sugars llddldldddddddddllll, PS)”, the figure is 152 % of control; as for “TGAAGTCCCGAGCCAAAGCC (sugars l3 d14 l3, PS)”, 0 % of control. The result for CAGCTTCGTCTTCCAG (sugars l3 d10 l3, PS) reads 75.9 % of control.

Regarding “GCCAGGGACGTGGGTGATAT (sugars l3 d14 l3, PS)”, the calcium oscillation score is 0 % of control. The result for “GTCTTCACATCCCAACT (sugars l4 d11 l2, PS)” reads 82.1 % of control.

On to “TTATTTCCAAATTCACTTTT (sugars l4 d11 l2 d1 l2, PS)”, for which the calcium oscillation score is 104 % of control. With CACCCTTACACATAGC (sugars l3 d11 l2, PS), the calcium oscillation score was 60.6 % of control.

As to ATCTTAGGCTGGCCC (sugars l3 d9 l3, PS), the calcium oscillation score was 50.6 % of control.

As for CCTTTGAAAGTCCTTT (sugars l2 d11 l3, PS), the calcium oscillation score was 100 % of control. The result for TCTGGCATGGGCACG (sugars l3 d9 l3, PS) reads 119 % of control; that for TCTCTAATTGTCCAATA (sugars l4 d9 l4, PS), 69 % of control; that for “CAACTGATTCCATCACC (sugars l4 d11 l2, PS)”, 87.8 % of control.
